The values that follow come from ChEMBL document CHEMBL4819150, “The structural simplification of lysergic acid as a natural lead for synthesizing novel anti-Alzheimer agents” (2021).

Each structure is given as a SMILES string. Calls of active or inactive are those of the source. The calls are words filed in the database; no cut-off is given here.

For experiment [1], the system named is PC-12. As to the kind of experiment: Neuroprotective activity against rat PC12 cells under glucose and oxygen-deprived condition assessed as increase in cell viability at 1 uM relative to control. In kind it is functional, cell-based.
For experiment [2], the system named is PC-12. As to the kind of experiment: […] activity in rat PC12 cells assessed as reduction in TCN-induced ER stress by measuring increase in cell viability at 1 uM relative to control. The class given is functional, cell-based.
Experiment [3] relates to SIM-A9. As to the kind of experiment: Antiinflammatory activity in mouse microglial SIM-A9 cells assessed as reduction in LPS-stimulated nitric oxide release at 1 uM relative to control. In kind it is functional, cell-based.
For experiment [4], the system named is PC-12. The experiment in a line: Neuroprotective activity against rat PC12 cells under glucose and oxygen-deprived condition assessed as fold increase in cell viability at 1 uM relative to DPZ. The class given is functional.
In experiment [5] the test system is SIM-A9. As to the kind of experiment: Neuroprotective activity against LPS-induced mouse SIM-A9 cells assessed as increase in cell viability at 1 uM relative to control. In kind it is functional, cell-based.
Experiment [6] deals with PC-12. As to the kind of experiment: Neuroprotective activity against rat PC12 cells under glucose and oxygen-deprived condition assessed as increase in cell viability at 0.1 uM relative to control. The class given is functional, cell-based.

`CN(C)Cc1c[nH]c2cccc(Br)c12`: the outcome with PC-12 [1], in the experiment with PC-12 [2] and in the experiment with SIM-A9 [3] was Active. Further, the “fold change (FC)” value in the experiment with PC-12 [4] stood at 10.
As to `COC(=O)/C=C/c1cccc2[nH]cc(CN(C)C)c12`, the result with PC-12 [1], in the experiment on SIM-A9 [5], with PC-12 [2] and in the experiment with SIM-A9 [3] was Active. Moreover, the “fold change (FC)” value with PC-12 [4] was determined as 10.
Consider `COc1cc2c(cc1OC)C(=O)C(CC1CCN(Cc3ccccc3)CC1)C2` (stereo unspecified), for which the result with PC-12 [6], in the experiment with PC-12 [1], in the experiment on SIM-A9 [5], with PC-12 [2] and with SIM-A9 [3] was Active.
Regarding `COC(=O)C[C@H]1c2cccc3[nH]cc(c23)C[C@@H]1[N+](=O)[O-]`, the outcome in the experiment with PC-12 [1] and in the experiment on PC-12 [2] was Active. In addition, the “fold change (FC)” value in the experiment with PC-12 [4] is 10.
As for `CN(C)Cc1c[nH]c2cccc(/C=C/C(N)=O)c12`, the result with PC-12 [1], in the experiment on SIM-A9 [5], with PC-12 [2] and with SIM-A9 [3] was Active. Moreover, the “fold change (FC)” value in the experiment with PC-12 [4] came out at 10.
`O=[N+]([O-])C(Cc1c[nH]c2cccc(Br)c12)Cc1c[nH]c2cccc(Br)c12`: in the experiment with PC-12 [1], the result was Active. Moreover, the result in the experiment with SIM-A9 [5] and in the experiment with PC-12 [2] was inactive. In the experiment with PC-12 [4], the “fold change (FC)” value amounted to 10.
In the case of `COCc1c[nH]c2cccc(/C=C/C(=O)OC)c12`, the outcome in the experiment on PC-12 [1], in the experiment with SIM-A9 [5], with PC-12 [2] and in the experiment with SIM-A9 [3] was Active. In the experiment with PC-12 [4], the “fold change (FC)” value is given as 10.
